# Data reported in patent publication US20260070922A1, “PYRAZOLE AND IMIDAZOLE DERIVATIVES AS DUAL OREXIN AND KAPPA-OPIOID RECEPTORS MODULATORS COMPOSITION, METHODS FOR TREATING NEUROLOGICAL AND PSYCHIATRIC DISORDERS” (HAGER BIOSCIENCES, LLC, priority 2022, published 2026).
# Tests used:
# [1] = molecular target: T1, Orexin type 1 (OX1R) receptor (Homo sapiens, UniProt O43613); experiment: In vitro orexin antagonism assay: intracellular calcium measurement (FLIPR), orexin-A 3 nM as agonist; format: cell-based; conditions: for inhibition at 1 µM: read-out: OX1R, % Inh. @ 1 uM; for IC50: first value of IC50/Kb cell; for Kb: second value of IC50/Kb cell
# T1 construct: expressed in transfected cells; host or cells: CHO cells (G418 selection)
# T1 sequence (O43613 1-425): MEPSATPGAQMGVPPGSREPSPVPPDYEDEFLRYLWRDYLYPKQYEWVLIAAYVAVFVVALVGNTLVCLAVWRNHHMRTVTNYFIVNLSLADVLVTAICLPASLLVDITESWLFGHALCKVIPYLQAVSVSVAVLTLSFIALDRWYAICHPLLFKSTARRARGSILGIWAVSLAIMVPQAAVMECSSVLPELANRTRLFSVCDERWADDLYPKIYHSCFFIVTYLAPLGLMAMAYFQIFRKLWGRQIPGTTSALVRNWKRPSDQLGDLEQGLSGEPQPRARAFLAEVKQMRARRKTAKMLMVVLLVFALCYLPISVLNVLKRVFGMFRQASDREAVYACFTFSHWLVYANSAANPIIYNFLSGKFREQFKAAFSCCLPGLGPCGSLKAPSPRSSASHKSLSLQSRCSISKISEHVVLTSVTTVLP
# Procedure: (§1) In Vitro Orexin Antagonism Measurement Assay: Intracellular Calcium Measurements:
# (§2) Chinese hamster ovary (CHO) cells expressing the human […] and the human orexin-2 receptor, respectively, are grown in culture medium (Ham F-12 with L-Glutamine) containing 300 μg/mL G418, 100 U/mL penicillin, 100 μg/mL streptomycin and 10% heat inactivated fetal calf serum (FCS). The cells are seeded at 20,000 cells/well into 384-well black clear bottom sterile plates (Greiner). The seeded plates are incubated overnight at 37° C. in 5% 002. Human orexin-A as an agonist is prepared as 1 mM stock solution in MeOH: water (1:1), diluted in HBSS containing 0.1% bovine serum albumin (BSA), NaHCO3: 0.375 g/L and 20 mM HEPES for use in the assay at a final concentration of 3 nM.
# (§3) Antagonists are prepared as 10 mM stock solution in DMSO, then diluted in 384-well plates using DMSO followed by a transfer of the dilutions into in HBSS containing 0.1% bovine serum albumin (BSA), NaHCO3: 0.375 g/L and 20 mM HEPES. On the day of the assay, 50 μL of staining buffer (HBSS containing 1% FCS, 20 mM HEPES, NaHCO3: 0.375 g/L, 5 mM probenecid (Sigma) and 3 μM of the fluorescent calcium indicator fluo-4 AM (1 mM stock solution in DMSO, containing 10% pluronic) is added to each well. The 384-well cell-plates are incubated for 50 min at 37° C. in 5% CO2 followed by equilibration at RT for 30 min before measurement.
# (§4) Within the Fluorescent Imaging Plate Reader (FLIPR Tetra, Molecular Devices), antagonists are added to the plate in a volume of 10 μL/well, incubated for 120 min and finally 10 μL/well of agonist is added. Fluorescence is measured for each well at 1 second intervals, and the height of each fluorescence peak is compared to the height of the fluorescence peak induced by 3 nM orexin-A with vehicle in place of antagonist. The IC50 value (the concentration of compound needed to inhibit 50% of the agonistic response) is determined and may be normalized using the obtained IC50 value of an on-plate reference compound. Optimized conditions were achieved by adjustment of pipetting speed and cell splitting regime. The calculated IC50values may fluctuate depending on the daily cellular assay performance. Fluctuations of this kind are known to those skilled in the art.
# [2] = molecular target: T2, human orexin-2 receptor (OX2R) (Homo sapiens, UniProt O43614); experiment: as above; format: cell-based; conditions: for inhibition at 1 µM: read-out: OX2R, % Inh. @ 1 uM
# T2 construct: expressed in transfected cells; host or cells: CHO cells (G418 selection)
# T2 sequence (O43614 1-444): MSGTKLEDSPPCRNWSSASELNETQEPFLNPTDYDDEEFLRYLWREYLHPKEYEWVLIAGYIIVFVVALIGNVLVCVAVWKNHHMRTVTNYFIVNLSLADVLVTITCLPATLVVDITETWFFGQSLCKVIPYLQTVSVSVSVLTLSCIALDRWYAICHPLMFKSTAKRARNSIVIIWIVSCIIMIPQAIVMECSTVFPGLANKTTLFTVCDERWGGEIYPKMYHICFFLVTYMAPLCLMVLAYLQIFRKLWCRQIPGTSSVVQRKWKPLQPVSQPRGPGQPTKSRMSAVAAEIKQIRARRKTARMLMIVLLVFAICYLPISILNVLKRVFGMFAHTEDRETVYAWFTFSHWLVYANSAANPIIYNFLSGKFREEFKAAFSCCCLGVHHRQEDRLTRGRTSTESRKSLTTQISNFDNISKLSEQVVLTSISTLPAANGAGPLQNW
# Procedure: Antagonistic activities on both orexin receptors have been measured for each example compound using the following procedure:
# as §1, §2, §3
# as §4, with “art. In the case where IC50values have been determined several times for the same compound, the geometric mean has been given.” for “art.”
SMILES,inhibition at 1 µM [1] [%],inhibition at 1 µM [2] [%],IC50 [1] [nM],Kb [1] [nM],IC50 ([2]; first value of IC50/Kb cell) [nM],Kb ([2]; second value of IC50/Kb cell) [nM]
O=C(c1c(-c2ccccc2)nc2ncccn12)N1CCC[C@H]1COc1ccc(C(F)(F)F)cn1 [Example 48],18.9,-1.1,,,,
C[C@@]1(COc2cnc(C(F)(F)F)cn2)CCCN1C(=O)c1nn2ccccc2c1-c1ccccc1 [Example 170],85,23,460,97,,
O=C(c1nc2ccccn2c1-c1ccccc1)N1CCC[C@H]1COc1ccc(C(F)(F)F)cn1 [Example 124],100,36,5,1,,
O=C(c1c(-c2ccc(F)cc2)nn2ccccc12)N1CCC[C@H]1CNc1ccc(C(F)(F)F)cn1 [Example 42],98.2,39.4,12,3,,
O=C(c1c(-c2ccccc2)nn2ccccc12)N1CCC[C@H]1CNc1ncc(F)cn1 [Example 23],23,13.5,,,,
O=C(c1c(-c2ccccc2)nc2ccccn12)N1CCC[C@H]1COc1ccc(Br)nc1 [Example 38],8.2,-6.1,,,,
O=C(c1c(-c2ccccc2)nc2ccc(F)cn12)N1CCC[C@H]1Cc1nc(-c2ccc(F)cn2)no1 [Example 121],44,45,,,,
O=C(c1c(-c2ccccc2)nc2ncccn12)N1CCCC[C@H]1COc1ccc(C(F)(F)F)cn1 [Example 47],59.5,1.2,,,,
O=C(c1c(-c2ccc(F)cc2)nn2ccccc12)N1CCC[C@H]1CNc1ccc(F)cn1 [Example 41],45.6,3.2,,,,
O=C(c1c(-c2ccccc2)nc2ccc(F)cn12)N1CC[C@H]1Cn1ccc(-c2ccc(F)cc2)n1 [Example 101],25,47,,,,
O=C(c1c(-c2ccccc2)nc2cc(C(F)(F)F)ccn12)N1CCC[C@H]1Cn1cc(-c2ccc(F)cn2)cn1 [Example 81],58,63,400,84,70,12
O=C(c1c(-c2ncccn2)nn2ccccc12)N1CCC[C@H]1COc1ccc(C(F)(F)F)cn1 [Example 191],100,11,49,10,,
O=C(c1nc2ccccn2c1-c1ccccc1)N1C2CCC1(COc1ccc(C(F)(F)F)cn1)CC2 [Example 160],98,2,24,5,,
O=C(c1c(-c2ccccc2F)nn2c1COCC2)N1[C@H](Cn2ccc(-c3ccc(F)cc3)n2)C[C@@H]2C[C@@H]21 [Example 96],44,22,,,,
O=C(c1c(-c2ccccc2)nc2cnccn12)N1CCC[C@H]1COc1ccc(C(F)(F)F)nc1 [Example 39],39.4,7.9,,,,

# Results, then the molecule that gave them:
inhibition at 1 µM [1] [%],inhibition at 1 µM [2] [%],IC50 [1] [nM],Kb [1] [nM],IC50 ([2]; first value of IC50/Kb cell) [nM],Kb ([2]; second value of IC50/Kb cell) [nM],SMILES
25,0,,,,,O=C(c1nc2n(c1-c1ccccn1)CCOC2)N1CCC[C@H]1Cc1nc(-c2ccccn2)no1 [Example 219]
50,6,,,,,C[C@@]1(COc2cnc(C(F)(F)F)cn2)CCCN1C(=O)c1nn2c(c1-c1ccccc1)OCCC2 [Example 165]
100,28,19,4,,,O=C(c1nn2c(c1-c1ccccn1)COCC2)N1CCC[C@H]1Cn1ccc(-c2ccccn2)n1 [Example 211]
100,19,9,2,,,O=C(c1nn2c(c1-c1ccccn1)OCCC2)N1CCC[C@H]1COc1ccc(C(F)(F)F)cn1 [Example 201]
70,24,160,34,,,O=C(c1nc2n(c1-c1ccccn1)CCOC2)N1CCC[C@H]1Cn1ccc(-c2ccc(F)cn2)n1 [Example 216]
46,25,,,,,O=C(c1c(-c2ccccc2)nn2c1COCC2)N1CCC[C@H]1Cn1ccc(-c2ccccn2)n1 [Example 76]
58,38,540,110,,,O=C(c1c(-c2ccccc2F)nn2c1COCC2)N1CCC[C@H]1Cn1ccc(-c2ccc(F)cn2)n1 [Example 91]
100,29,15,3,,,O=C(c1nn2c(c1-c1ccccn1)OCCC2)N1CCC[C@H]1Cn1ccc(-c2ccccn2)n1 [Example 195]
56,0,,,,,O=C(c1nn2c(c1-c1ccccn1)CCOC2)N1CCC[C@H]1Cc1nc(-c2ccccn2)no1 [Example 221]
14,40,,,,,O=C(c1c(-c2ccccc2F)nn2c1COCC2)N1CCC[C@H]1Cn1cc(-c2ccccn2)cn1 [Example 71]
96,59,19,4,,,O=C(c1nn2ccccc2c1-c1ccccn1)N1CCC[C@H]1Cn1ccc(-c2ccc(F)cn2)n1 [Example 182]
91,28,5,1,,,O=C(c1nn2cccnc2c1-c1ccccn1)N1CCC[C@H]1COc1ccc(C(F)(F)F)cn1 [Example 190]
99,0,30,6,,,O=C(c1nc2ccccn2c1-c1ccccn1)N1CCC[C@H]1Cn1ccc(-c2ccc(F)cn2)n1 [Example 207]
94,43,18,4,,,O=C(c1nn2cccnc2c1-c1ccccn1)N1CCC[C@H]1Cc1nc(-c2ccc(F)cn2)no1 [Example 189]
98,78,17,4,,,O=C(c1c(-c2ncccn2)nn2ccccc12)N1CCC[C@H]1Cn1ccc(-c2ccc(F)cn2)n1 [Example 203]
64,45,620,13,,,O=C(c1c(-c2ccccc2F)nn2c1COCC2)N1CCC[C@H]1Cn1cc(-c2ccccc2)cn1 [Example 72]
17,39,,,,,O=C(c1c(-c2ccccc2F)nn2c1COCC2)N1CCC[C@H]1Cn1cc(-c2ccc(F)cn2)cn1 [Example 83]
